Measured values as given in patent publication EP2057188B1 (priority 2006, dated 2008).
Where two headings read alike, the source gives them in different places. Ends that are not written are not given here.

Columns and labels:
[1] = type: in vivo, NIH/Swiss mice
Description: Gavage (1.5g/kg) was given at t=0. Sample was taken at t=30 min.

[2] = IVGTT duration of action assay, single SC injection; type: in vivo, rat; details: for Duration In The Rat IVGTT Assay: compared with 0601GIP3794 (794), @ -120 min
Description: In the typical IVGTT assays the test sample was administered by IV infusion. The IV infusion of sample was initiated at t = -30min and continued through t = 90. IV glucose was given at t = 0. To determine a duration of action using the IVGTT assay, the sample was injected SC as a single injection at one time point indicated (e.g., t = -240, -120, -60 or -30) prior to administration of glucose. IV glucose was given at t = 0.

[3] = tested on: cardiomyocyte Gs- and Gi-coupled receptors; experiment: cAMP assay in neonatal cardiomyocytes; type: cell-based, rat
Description: Activation of cardiomyocyte Gs- and Gi-coupled receptors was determined as a measure of cAMP production.
Neonatal cardiomyocytes were isolated using a commercially available system. […] Sprague Dawley neonatal rats (1-2 days old) were decapitated and the beating heart dissected out into digestion buffer (Cellutron D1 buffer) to dissociate cells. […] The resuspended cells incubated in buffer (Cellutron D3 buffer) for sufficient time to allow optimal dispersion and minimize the need for pipetting to break up clumps. Cells released from the first 2 digestions were discarded since a significant portion of these is red blood cells. Resuspended cells were filtered and allowed to pre-plate for 1 hour on plastic in an incubator in NS media (Cellutron, NJ) in order to remove fibroblasts. After 1 hour of pre-plating, floating cells are removed and the flask rinsed with NS media. The floating cells and the cells in the rinse media were combined and counted. Residual red blood cells, which are smaller that the cardiac myocytes, were not counted.
At Day 1, the NS media was replaced with fresh NS media.
Dose response was determined.
For Gs assays the positive control was 10uM forskolin and negative control was buffer. For Gi assays the positive control was buffer and the negative control was 10uM forskolin.

[4] = inhibition of gastric emptying, subcutaneous, cited from earlier work
[5] = type: in vivo, rats; parameters: AUC Change in Insulin Pre IVGTT / AUC Change in Insulin Post IVGTT: unit not given beside the values
[6] = type: in vivo, C57BL/6 mice; details: infused via osmotic pump for 2 weeks, high-fat diet
[7] = IP at t=0; consumed at t=30, 60, 120 min
[8] = Circulatory system effects in conscious rats by telemetry; type: in vivo, Harlan Sprague Dawley rats; details: 80 nmol/kg, remote intravenous dosing
[9] = type: in vivo, db/db mice; details: Figure 4; GIP at a 10 fold higher dose
Description: Peptide was injected IP at t=0 immediately following baseline sample into 2-hour fasted db/db mice.

[10] = type: in vivo, NIH/Swiss mice; details: mouse, in vivo
Description: In Figure 3A, bars represent mean ± sd, n=6-10. […] Gavage (1.5g/kg) was given at t=0. Sample was taken at t=30 min. […] In Figure 3B, points represent mean ± sem, n=8-15.
In Figure 13B bars represent mean +/- sd. Peptide was injected IP at t = -5 minutes into 4-hour fasted NIH/Swiss female mice. Gavage (1.5g/kg) was given at t = 0. […] In Figure 17 points represent mean +/- sem. […] Samples were taken at t=60, t=120 and t=180.

[11] = 100 pmol/kg/min infusion dose in rats
[12] = insulin levels at 0-30 minutes as AUC, rat
[13] = cardiomyocyte Gs-coupled receptor activation, three independent experiments

CC[C@H](C)[C@H](NC(=O)[C@H](CO)NC(=O)[C@H](Cc1ccc(O)cc1)NC(=O)[C@H](CC(=O)O)NC(=O)[C@H](CO)NC(=O)[C@@H](NC(=O)[C@H](Cc1ccccc1)NC(=O)[C@@H](NC(=O)CNC(=O)[C@H](CCC(=O)O)NC(=O)[C@@H](C)NC(=O)[C@@H](N)Cc1ccc(O)cc1)[C@@H](C)O)[C@@H](C)CC)C(=O)N[C@@H](C)C(=O)N[C@@H](CCSC)C(=O)N[C@@H](CC(=O)O)C(=O)N[C@@H](CCCCN)C(=O)N[C@H](C(=O)N[C@@H](Cc1c[nH]cn1)C(=O)N[C@@H](CCC(N)=O)C(=O)N[C@@H](CCC(N)=O)C(=O)N[C@@H](CC(=O)O)C(=O)N[C@@H](Cc1ccccc1)C(=O)N[C@H](C(=O)N[C@@H](CC(N)=O)C(=O)N[C@@H](Cc1c[nH]c2ccccc12)C(=O)N[C@@H](CC(C)C)C(=O)N[C@@H](CC(C)C)C(=O)N[C@@H](C)C(=O)N[C@@H](CCC(N)=O)C(=O)N[C@@H](CCCCN)C(=O)N1CCC[C@H]1C(=O)N[C@@H](CCCCN)C(=O)N[C@@H](CO)C(=O)N[C@@H](C)C(=O)N[C@@H](CCCNC(=N)N)C(=O)N1CCC[C@H]1C(=O)N[C@@H](CO)C(N)=O)C(C)C)[C@@H](C)CC [0601 GIP48 21]
Basal Glucose Lowering at 80 nmol/Kg ([1]; AUC240): -5%, AUC240 | Duration In The Rat IVGTT Assay [2]: <794@-120 min

CC[C@H](C)[C@H](NC(=O)[C@H](CO)NC(=O)[C@H](Cc1ccc(O)cc1)NC(=O)[C@H](CC(=O)O)NC(=O)[C@H](CO)NC(=O)[C@@H](NC(=O)[C@H](Cc1ccccc1)NC(=O)[C@@H](NC(=O)CNC(=O)[C@H](CCC(=O)O)NC(=O)[C@@H](C)NC(=O)[C@@H](N)Cc1ccc(O)cc1)[C@@H](C)O)[C@@H](C)CC)C(=O)N[C@@H](C)C(=O)N[C@@H](CCSC)C(=O)N[C@@H](CC(=O)O)C(=O)N[C@@H](CCCCN)C(=O)N[C@H](C(=O)N[C@@H](Cc1c[nH]cn1)C(=O)N[C@@H](CCC(N)=O)C(=O)N[C@@H](CCC(N)=O)C(=O)N[C@@H](CC(=O)O)C(=O)N[C@@H](Cc1ccccc1)C(=O)N[C@H](C(=O)N[C@@H](CC(N)=O)C(=O)N[C@@H](Cc1c[nH]c2ccccc12)C(=O)N[C@@H](CC(C)C)C(=O)N[C@@H](CC(C)C)C(=O)N[C@@H](C)C(=O)N[C@@H](CCC(N)=O)C(=O)N[C@@H](CCCCN)C(=O)N1CCC[C@H]1C(=O)N[C@@H](CCCCN)C(=O)N[C@@H](CCCCN)C(=O)N[C@@H](CC(C)C)C(=O)N[C@@H](CCCCN)C(=O)N1CCC[C@H]1C(=O)N[C@@H](CO)C(N)=O)C(C)C)[C@@H](C)CC [0601 GIP48 22]
Basal Glucose Lowering at 80 nmol/Kg ([1]; AUC240): -11%, AUC240 | Duration In The Rat IVGTT Assay [2]: <794@-120 min

CC[C@H](C)[C@H](NC(=O)[C@H](CO)NC(=O)[C@H](Cc1ccc(O)cc1)NC(=O)[C@H](CC(=O)O)NC(=O)[C@H](CO)NC(=O)[C@@H](NC(=O)[C@H](Cc1ccccc1)NC(=O)[C@@H](NC(=O)CNC(=O)[C@H](CCC(=O)O)NC(=O)[C@@H](C)NC(=O)[C@@H](N)Cc1ccc(O)cc1)[C@@H](C)O)[C@@H](C)CC)C(=O)N[C@@H](C)C(=O)N[C@@H](CCSC)C(=O)N[C@@H](CC(=O)O)C(=O)N[C@@H](CCCCN)C(=O)N[C@H](C(=O)N[C@@H](Cc1c[nH]cn1)C(=O)N[C@@H](CCC(N)=O)C(=O)N[C@@H](CCC(N)=O)C(=O)N[C@@H](CC(=O)O)C(=O)N[C@@H](Cc1ccccc1)C(=O)N[C@H](C(=O)N[C@@H](CC(N)=O)C(=O)N[C@@H](Cc1c[nH]c2ccccc12)C(=O)N[C@@H](CC(C)C)C(=O)N[C@@H](CC(C)C)C(=O)N[C@@H](C)C(=O)N[C@@H](CCC(N)=O)C(=O)N[C@@H](CCCCN)C(=O)N1CCC[C@H]1C(=O)N[C@@H](CO)C(=O)N1CCC[C@H]1C(=O)N[C@@H](CCCCN)C(=O)N[C@@H](CCCCN)C(=O)N[C@H](C(=O)N[C@@H](CCCNC(=N)N)C(=O)N[C@@H](Cc1ccc(O)cc1)C(=O)N[C@@H](CO)C(N)=O)[C@@H](C)CC)C(C)C)[C@@H](C)CC [0601 GIP48 23]
Basal Glucose Lowering at 80 nmol/Kg ([1]; AUC240): -23%, AUC2240 | Duration In The Rat IVGTT Assay [2]: <794@-120 min

CC[C@H](C)[C@H](NC(=O)[C@H](CO)NC(=O)[C@H](Cc1ccc(O)cc1)NC(=O)[C@H](CC(=O)O)NC(=O)[C@H](CO)NC(=O)[C@@H](NC(=O)[C@H](Cc1ccccc1)NC(=O)[C@@H](NC(=O)CNC(=O)[C@H](CCC(=O)O)NC(=O)[C@@H](C)NC(=O)[C@@H](N)Cc1ccc(O)cc1)[C@@H](C)O)[C@@H](C)CC)C(=O)N[C@@H](C)C(=O)N[C@@H](CCSC)C(=O)N[C@@H](CC(=O)O)C(=O)N[C@@H](CCCCN)C(=O)N[C@H](C(=O)N[C@@H](Cc1c[nH]cn1)C(=O)N[C@@H](CCC(N)=O)C(=O)N[C@@H](CCC(N)=O)C(=O)N[C@@H](CC(=O)O)C(=O)N[C@@H](Cc1ccccc1)C(=O)N[C@H](C(=O)N[C@@H](CC(N)=O)C(=O)N[C@@H](Cc1c[nH]c2ccccc12)C(=O)N[C@@H](CC(C)C)C(=O)N[C@@H](CC(C)C)C(=O)N[C@@H](C)C(=O)N[C@@H](CCC(N)=O)C(=O)N[C@@H](CCCCN)C(=O)N1CCC[C@H]1C(=O)N[C@@H](CCC(N)=O)C(=O)N[C@@H](CCCCN)C(=O)N[C@H](C(=O)N[C@@H](CCCNC(=N)N)C(=O)N[C@@H](Cc1ccc(O)cc1)C(=O)N[C@@H](CO)C(N)=O)[C@@H](C)CC)C(C)C)[C@@H](C)CC [0601 GIP48 53]
Basal Glucose Lowering at 80 nmol/Kg ([1]; AUC240): -20%, AUC240 | Duration In The Rat IVGTT Assay [2]: < 794@ -120 min

CC[C@H](C)[C@H](NC(=O)[C@H](CO)NC(=O)[C@H](Cc1ccc(O)cc1)NC(=O)[C@H](CC(=O)O)NC(=O)[C@H](CO)NC(=O)[C@@H](NC(=O)[C@H](Cc1ccccc1)NC(=O)[C@@H](NC(=O)CNC(=O)[C@H](CCC(=O)O)NC(=O)[C@@H](C)NC(=O)[C@@H](N)Cc1ccc(O)cc1)[C@@H](C)O)[C@@H](C)CC)C(=O)N[C@@H](C)C(=O)N[C@@H](CCSC)C(=O)N[C@@H](CC(=O)O)C(=O)N[C@@H](CCCCN)C(=O)N[C@H](C(=O)N[C@@H](Cc1c[nH]cn1)C(=O)N[C@@H](CCC(N)=O)C(=O)N[C@@H](CCC(N)=O)C(=O)N[C@@H](CC(=O)O)C(=O)N[C@@H](Cc1ccccc1)C(=O)N[C@H](C(=O)N[C@@H](CC(N)=O)C(=O)N[C@@H](Cc1c[nH]c2ccccc12)C(=O)N[C@@H](CC(C)C)C(=O)N[C@@H](CC(C)C)C(=O)N[C@@H](C)C(=O)N[C@@H](CCC(N)=O)C(=O)N[C@@H](CCCCN)C(=O)N1CCC[C@H]1C(=O)N[C@@H](CCCCN)C(=O)N[C@@H](CCCCN)C(=O)N[C@@H](C)C(=O)N[C@@H](CCCNC(=N)N)C(=O)N[C@@H](Cc1ccc(O)cc1)C(=O)N[C@@H](CO)C(N)=O)C(C)C)[C@@H](C)CC [0601 GIP48 56]
Basal Glucose Lowering at 80 nmol/Kg ([1]; AUC240): -3%, AUC240 | Duration In The Rat IVGTT Assay [2]: <794@-120 min

HAEGTFTSDVSSYLEGQAAKEFIAWLVKGR-NH2 [GLP-1]
cAMP activity in cardiomyocytes ([3]; data not shown): very low to no significant activity | EC(50) ([4]; conscious rats ~200g): 1.82 µg | EC(50) ([4]; conscious rats): 2.76 nmol/kg

YaEGTFISDYSIAMDKIHQQDFVNWLLAQKPSSGAPPPS-NH2 [Compound 0601GIP3794]
Basal Glucose Lowering at 80 nmol/Kg ([1]; AUC180): -9% | Basal Glucose Lowering at 80 nmol/Kg ([1]; AUC240): -7 to-20% | glucose lowering in normal mice ([1]; Figures 3A and 3B, NIH/Swiss mice): significantly more efficacious than full length GIP | glucose lowering profile ([1]; Figures 8A and 8B, IP at t=0, 2-hour fasted NIH/Swiss mice): gradually increasing activity that peaks at t=120min | insulin levels prior to the glucose challenge [5, 11]: significant rise in insulin levels | insulinotropic response to an intravenous glucose challenge [5, 11]: significant enhancement of the insulinotropic response | Standard IVGTT assay IV infusion (100 pmol/min/kg) [5, 12]: 249 | AUC Change in Insulin Post IVGTT ([5]; rat, in vivo): 173.1+-29.4 | AUC Change in Insulin Pre IVGTT ([5]; rat, in vivo): 28.8 +-10.7 | body weight change in diet-induced-obese mice [6]: without a concomitant reduction in body weight | acute food intake [7]: did not acutely inhibit food intake | EC(50) ([3]; cAMP production, experiment of Figures 18A/18B): 11.7 nM | EC(50) [3, 13]: 29.8 nM | dP/dt (inotropic effect) [8]: prolonged inotropic effect | heart rate [8]: transient relative to GIP | mean arterial pressure [8]: decreased mean arterial pressure | systolic and diastolic pressures ([8]; compared to vehicle or GIP): sustained lowering of systolic and diastolic pressures | glucose lowering in a diabetic mouse model [9]: pronounced and long-acting effect in lowering glucose | OGTT ED50 [10]: ~2 nmol/kg | Duration of action in assay SC inj T = -30 min [2, 12]: 198 | Duration of action in assay SC inj T = -60 min [2, 12]: 159 | Duration of action in assay SC inj T = -120 min [2, 12]: 204 | Duration of action in assay SC inj T= -240 min [2, 12]: 79

urocortin: known cardiac myocyte Gs-coupled receptor activator used as a positive control (DNPSLSIDLTFHLLRTLLELARTQSQRERAEQNRIIFDSV; ends and bridges not checked; UniProt P55089 83-122, looked up)
EC(50) [3, 13]: 0.7 nM
